Experimental data as given in patent US20240058268A1, “METHODS OF TREATING SKIN DISORDERS” (priority 2021, published 2024).

Key:
[1] = tested on: acne papule biopsies, gene sets; experiment: Gene set enrichment analysis (FGSEA, hallmark and reactome gene sets); assay type: in vivo, human; details: inflammatory response, TNFA signaling via NF-kB, neutrophil degranulation, chemokines and receptors; collagen degradation, extracellular matrix degradation/organization
Procedure: Functional and network analysis were generated with the Ingenuity Pathway Analysis software (QIAGEN® Inc., qiagenbioinformatics.com/products/ingenuity-pathway-analysis), and with Open Targets (opentargets.org/). IPA was used to identify canonical pathways, diseases and functions, and gene networks related to differentially expressed genes in acne lesions and post-lesional skin after treatment with trifarotene or vehicle. In addition, gene set enrichment analysis was performed with the R package FGSEA (version 1.12.0) using the hallmark and reactome gene sets.

[2] = tested on: acne papule biopsies of subjects with moderate inflammatory acne of the back; experiment: Large scale gene expression profiling of skin biopsies (Affymetrix U133 Plus 2.0); assay type: in vivo, human
Procedure: Subjects with moderate inflammatory acne of the back were treated with a 0.005% trifarotene or vehicle cream on dedicated back areas for 27 days, and 4 biopsies were collected on each subject (non-involved skin, acne papule, Trifarotene and vehicle treated site). Large scale gene expression profiling of the biopsies was performed using Affymetrix technology, and treatment specific gene expression profiles were generated using statistical modeling. Clinical investigations were conducted in accordance with the Declaration of Helsinki principles, and the ICH Guideline for Good Clinical Practice. The clinical study received approval from the ethics committee of Brest, France (reference CPP Quest 6-755). This was a post-hoc analysis of data collected from 9 patients aged 18-35 with acne vulgaris (EUDRACT No. 2012-001943-36). In the 4-week open-label clinical study, subjects received once-daily applications of trifarotene 0.005% cream and vehicle cream on the back. Each patient had four biopsies performed, 1 from skin without visible acne lesion (non-involved skin) and three at the site of acne papule, with the following timing: one prior to treatment (day 0), one after vehicle treatment (day 27), and one after trifarotene treatment (day 27). Aubert et al, Br J Dermatol., 2018 August; 179(2):442-456. Samples were collected for large-scale gene expression profiling. Subjects provided written informed consent prior to biopsies. Subjects with moderate inflammatory acne on the back at the screening visit, defined by scores of between 2 and 4 for the whole back, with at least one area scored at 2 and a maximum of three nodules using the ECLA (Acne Lesion Score Scale) scale, were included in the study. Each subject had at least 2 papules 48 hours old, one on each half of the back. Subjects were excluded if they had active skin disease or inflammation other than acne, underlying known conditions which could interfere with study results, history of allergy to local anesthetics and/or topical antiseptics, history of bleeding disorder, or pregnancy/lactation (females). Predefined washout periods were mandated for acne treatments, immunosuppressants, immunomodulators, systemic corticosteroids, and isotretinoin. Study personnel applied treatment to patients' backs with trifarotene cream (right side) or vehicle (left side) once daily for 28 days excluding weekends (n=19 applications). Biopsies of nonlesional areas of trifarotene- and vehicle-treated skin were made under local anaesthesia at day 27 as shown in FIG. 1. Biopsies were stored in RNAlater TissueProtect Tubes (Qiagen, Les Ulis, France). Bioinformatics Analysis: Data analysis was performed using Array Studio software (Omicsoft Corporation, Cary, NC, USA). Affymetrix U133 Plus 2.0 chips (GeneChipTM, Santa Clara, CA, USA) were normalized using the multi-array average (RMA) method (See […], et al. Exploration, normalization, and summaries of high density oligonucleotide array probe level data. Biostatistics, 2003; 4:249-64.) Low expression probe-sets were filtered. Only Affymetrix identifiers with expression ≥2^6 in at least 5 samples in one condition were selected for further statistical analysis, resulting in data for 36245 out of the 54675 probe-sets present on the HG U133 Plus 2.0 array. Mean expression levels were obtained by calculating the geometric means of the RMA-normalized data. A linear model was fitted to the normalized data, and statistical testing of the comparisons of interest were performed using a moderated t-test. Paired-test was used when applicable. P values were adjusted for multiple testing using the Benjamini-Hochberg false discovery rate (FDR) method (See e.g., Benjamini Y, et al., Controlling the false discovery rate in behavior genetics research. Behav Brain Res, 2001; 125:279-84). Candidate differentially expressed genes were selected using a combination of fold-change and […]; genes with absolute fold change>2 and FDA<0.05 were considered as candidate differentially expressed genes. […]

[3] = lesional skin after 0.005% cream (day 27) vs before treatment

CC(C)(C)c1cc(-c2cc(-c3ccc(C(=O)O)cc3)ccc2OCCO)ccc1N1CCCC1 [Trifarotene, 3″-tert-Butyl-4′-(2-hydroxy-ethoxy)-4″-pyrrolidin-1-yl-[1,1′,3′,1″ ]terphenyl-4-carboxylic acid]
gene set enrichment: inflammatory modules and tissue remodeling gene sets [1]: downregulates | number of genes upregulated among the 67 genes regulated ([2]; LINC01224, INA, GABRA4, PXMP4): four | number of genes uniquely downregulated (not in spontaneously resolving signature) ([2]; absolute fold change>2, genes of inflammatory cell infiltration and extracellular matrix reorganization): 67 genes | number of genes in common between acne lesion profile and trifarotene-treated lesion profile, all reversed ([2]; acne signature vs trifarotene signature): 354 genes | Fold Change R3 vs L1: ADAM12 (226777_at) [2, 3]: −3.84 | Fold Change R3 vs L1: ADAMDEC1 (206134_at) [2, 3]: −6.29 | Fold Change R3 vs L1: APELA (1559280_a_at) [2, 3]: −2.70 | Fold Change R3 vs L1: ARHGAP9 (224451_x_at) [2, 3]: −2.14 | Fold Change R3 vs L1: BCAT1 (214452_at) [2, 3]: −3.66 | Fold Change R3 vs L1: BIRC3 (210538_s_at) [2, 3]: −2.23 | Fold Change R3 vs L1: CBLN2 (242301_at) [2, 3]: −2.61 | Fold Change R3 vs L1: CCDC71L (229521_at) [2, 3]: −2.26 | Fold Change R3 vs L1: CCNA1 (205899_at) [2, 3]: −3.55 | Fold Change R3 vs L1: CD37 (204192_at) [2, 3]: −2.13 | Fold Change R3 vs L1: CD69 (209795_at) [2, 3]: −2.10 | Fold Change R3 vs L1: CD80 (1554519_at) [2, 3]: −4.03 | Fold Change R3 vs L1: CD84 (230391_at) [2, 3]: −2.57 | Fold Change R3 vs L1: CLEC4A (221724_s_at) [2, 3]: −2.32 | Fold Change R3 vs L1: CTLA4 (236341_at) [2, 3]: −2.54 | Fold Change R3 vs L1: CYTH4 (219183_s_at) [2, 3]: −2.36 | Fold Change R3 vs L1: DMXL2 (215761_at) [2, 3]: −2.35 | Fold Change R3 vs L1: EVI2B (211742_s_at) [2, 3]: −2.35 | Fold Change R3 vs L1: FERMT3 (223303_at) [2, 3]: −2.12 | Fold Change R3 vs L1: FNDC3B (229865_at) [2, 3]: −2.35 | Fold Change R3 vs L1: GABRA4 (208463_at) [2, 3]: 2.26 | Fold Change R3 vs L1: GASK1B (219872_at) [2, 3]: −2.30 | Fold Change R3 vs L1: GLIPR1 (204222_s_at) [2, 3]: −2.48 | Fold Change R3 vs L1: GLIPR2 (225604_s_at) [2, 3]: −2.24 | Fold Change R3 vs L1: GLIS3 (229435_at) [2, 3]: −3.07 | Fold Change R3 vs L1: GPRIN3 (1556698_a_at) [2, 3]: −2.27 | Fold Change R3 vs L1: HLA-DPA1 (213537_at) [2, 3]: −2.14 | Fold Change R3 vs L1: HP (206697_s_at) [2, 3]: −2.99 | Fold Change R3 vs L1: IL2RG (204116_at) [2, 3]: −2.28 | Fold Change R3 vs L1: IL18BP (222868_s_at) [2, 3]: −2.37 | Fold Change R3 vs L1: INA (204465_s_at) [2, 3]: 2.34 | Fold Change R3 vs L1: IRF8 (204057_at) [2, 3]: −2.02 | Fold Change R3 vs L1: ITGAX (210184_at) [2, 3]: −2.85 | Fold Change R3 vs L1: KLHL6 (1555275_a_at) [2, 3]: −3.05 | Fold Change R3 vs L1: LINC01224 (233142_at) [2, 3]: 3.51 | Fold Change R3 vs L1: LOXL2 (202998_s_at) [2, 3]: −2.18 | Fold Change R3 vs L1: LPXN (216250_s_at) [2, 3]: −2.25 | Fold Change R3 vs L1: LY86 (205859_at) [2, 3]: −2.18 | Fold Change R3 vs L1: MMP12 (204580_at) [2, 3]: −11.13 | Fold Change R3 vs L1: MMP13 (205959_at) [2, 3]: −4.3 | Fold Change R3 vs L1: MMP19 (204575_s_at) [2, 3]: −2.71 | Fold Change R3 vs L1: MSR1 (214770_at) [2, 3]: −2.45 | Fold Change R3 vs L1: NCEH1 (225847_at) [2, 3]: −2.70 | Fold Change R3 vs L1: NRP2 (223510_at) [2, 3]: −2.46 | Fold Change R3 vs L1: P2RY8 (229686_at) [2, 3]: −2.23 | Fold Change R3 vs L1: P2RY10 (236280_at) [2, 3]: −2.05 | Fold Change R3 vs L1: PAPSS2 (203060_s_at) [2, 3]: −2.60 | Fold Change R3 vs L1: PARVG (223562_at) [2, 3]: −2.23 | Fold Change R3 vs L1: PTHLH (211756_at) [2, 3]: −2.55 | Fold Change R3 vs L1: PTPN22 (236539_at) [2, 3]: −2.27 | Fold Change R3 vs L1: PTPRO (208121_s_at) [2, 3]: −2.26 | Fold Change R3 vs L1: PXMP4 (238746_at) [2, 3]: 2.14 | Fold Change R3 vs L1: RAC2 (207419_s_at) [2, 3]: −2.03 | Fold Change R3 vs L1: RHOH (204951_at) [2, 3]: −2.57 | Fold Change R3 vs L1: SELP (206049_at) [2, 3]: −2.10 | Fold Change R3 vs L1: SELPLG (209879_at) [2, 3]: −2.06 | Fold Change R3 vs L1: SH2B3 (203320_at) [2, 3]: −2.26 | Fold Change R3 vs L1: SIRPB1 (206934_at) [2, 3]: −2.45 | Fold Change R3 vs L1: SLAMF7 (219159_s_at) [2, 3]: −2.49 | Fold Change R3 vs L1: SLC6A14 (219795_at) [2, 3]: −2.04 | Fold Change R3 vs L1: SNAP25 (202508_s_at) [2, 3]: −2.40 | Fold Change R3 vs L1: TRG-AS1 (239237_at) [2, 3]: −2.33 | Fold Change R3 vs L1: TYROBP (204122_at) [2, 3]: −2.39 | Fold Change R3 vs L1: VCAN (215646_s_at) [2, 3]: −2.43 | Fold Change R3 vs L1: XCL1 (206366_x_at) [2, 3]: −2.02
